GI50 and TGI data for eight compounds are collected here from PubChem BioAssay (NCI).

Assay in all cases: growth of human tumour cells (NCI), 48 h
For test [1], the system named is A498 renal.
Test [2] relates to ACHN renal.
Test [3] has as its system HT29 colon.
Test [4] relates to M14 melanoma.
Test [5] deals with OVCAR-3 ovarian.
The test system of test [6] is OVCAR-4 ovarian.
Test [7] concerns SF-268 CNS.
Test [8] concerns SK-OV-3 ovarian.
The subject of test [9] is SN12C renal.
Test [10] has as its system UO-31 renal.

Molecules are shown by their SMILES. Several values for one entry are separate records, joined by “and”; a condition that tells them apart may be missing. Equal entries are not always repeated.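 The compound was tested at five concentrations on cells cultured in 96-well plates, with a 48-hour exposure period. GI50 = concentration required for 50% inhibition of growth. At the TGI there is no net growth.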 Where only a bound is given, the exact number is not on record here.

With `CC(=O)N[C@H]1C=C[C@@H]2/C=C(C)/C=C/[C@@H](C)[C@H]([C@H](C)[C@H](O)[C@@H](C)NC(C)=O)OC(=O)/C=C/C=C(C)\C=C\[C@]2(C)C1`, the GI50 in [1] was 0.0045 µM; in test [2], 0.0186 µM and 0.0045 µM; in test [3] it was 0.00384 µM and 0.0045 µM; in test [4], 0.00734 µM and 0.0045 µM; in test [5], 0.0045 µM; in test [6], 6.59 µM. For the same compound, the GI50 in [7] is 0.126 µM and 0.0322 µM; in test [8] it was 0.0117 µM and 0.0045 µM; in [9], 0.0212 µM and 0.00535 µM; in test [10] it was 0.00414 µM and 0.0045 µM. The TGI in test [1] was 0.0181 µM; in [2], 4.65 µM and > 45 µM; in [3] it was 4.65 µM and > 45 µM; in test [5] it was 18 µM; in [6], over 45 µM; in test [7], 4.65 µM and > 45 µM. Besides, the TGI in test [8] was 4.65 µM and > 45 µM; in test [9], 4.65 µM and > 45 µM; in test [10] it was 4.65 µM and 10.6 µM.

On to `CCN(CC)CCCC(C)Nc1c2ccc(Cl)cc2nc2ccc(OC)cc12` (stereo not given), for which the GI50 in test [1] was 1.64 µM; in [2], 1.42 µM; in [8], 2.69 µM; in [9], 1.59 µM; in [10] it was 1.52 µM. Moreover, the TGI in test [1] is 6.93 µM and 5.11 µM; in [2], 5.15 µM and 9.77 µM; in test [3] it was 3.97 µM and 2.57 µM; in test [4], 3.36 µM and 3.39 µM; in test [5] it was 6.89 µM and 9.8 µM; in [6] it was 5.05 µM and 3.74 µM. The TGI in test [7] was 5.03 µM and 7.68 µM; in test [8], 10.3 µM and 12.6 µM; in test [9] it was 7.16 µM and 9.28 µM; in test [10], 3.12 µM and 5.49 µM.

`O=C(Nc1cc(Cl)c(Cl)cc1Cl)C(=O)C1C=CCS1(=O)=O` (stereo not given): the TGI in [1], in test [2], in test [3], in test [4], in test [5] and in [6] was over 100 µM each time. For the same compound, the TGI in [7], in test [8], in test [9] and in [10] was over 100 µM throughout.

`COc1cc(Nc2nccc(Nc3ccc4c(C)[nH]nc4c3)n2)cc(OC)c1OC`: the GI50 is 0.253 µM in test [1]; 1.9 µM in test [2]; 0.916 µM in test [3]; 1.35 µM in test [4]; 2.5 µM in test [5]; 4.04 µM in test [6]. In addition, the GI50 was 2.42 µM in [7], 1.53 µM in [8], 2.12 µM in test [9] and 0.842 µM in test [10]. Besides, the TGI was 1.94 µM in [1]; over 25 µM in [2]; 4.49 µM in test [3]; 5.37 µM in [4]; 7.54 µM in [5]; over 20.7 µM in test [6]. The TGI came to 7.89 µM in test [7], 6.64 µM in test [8], 20.8 µM in [9] and 5.19 µM in test [10].

Turning to `c1ccc2c(c1)CCC/C2=N\OCC1CO1` (stereo not given), the TGI in test [1], in [2], in test [3], in test [4], in [5] and in test [6] was over 100 µM throughout. Besides, the TGI in test [7], in test [8], in test [9] and in test [10] was over 100 µM throughout.

Regarding `COC(=O)CCc1cc(OC)c2c(c1)C(C(=O)OC)C(c1ccc(OC)c(OC)c1)O2` (stereo not given), the GI50 was over 100 µM in [1]; > 100 µM and 11.6 µM in test [4]; > 100 µM and 13.9 µM in test [5]; > 100 µM and 37.9 µM in test [7]; > 100 µM and 39.6 µM in [8]; 84.9 µM and 36.8 µM in test [10]. Besides, the TGI in test [1], in test [2], in test [3], in test [4], in test [5] and in test [6] was over 100 µM each time. In addition, the TGI in test [7], in [8], in test [9] and in test [10] was over 100 µM throughout.

As to `O=c1c(Oc2ccc(F)cc2F)cc2cnc(NC3CCOCC3)nc2n1C1CCS(=O)(=O)CC1`, the GI50 in test [1], in [2], in test [3], in test [4], in [5] and in [6] was over 25 µM each time. Further, the GI50 in test [7], in test [8], in [9] and in test [10] was over 25 µM in each case. Also, the TGI in test [1], in test [2], in [3], in test [4], in test [5] and in test [6] was over 25 µM each time. Moreover, the TGI in test [7], in [8], in test [9] and in [10] was over 25 µM in each case.

`COc1ccc(CN(C)c2ccc(CO)c(Cl)c2)cc1`: the GI50 in [1] was 0.0416 µM; in test [2] it was 32.6 µM; in test [3], 5.5 µM; in test [4], 22.7 µM; in test [5], 2.93 µM; in test [6], 1.93 µM. Besides, the GI50 in test [7] is 33.4 µM; in test [8], 18.8 µM; in test [9], 21.5 µM; in test [10], 9.38 µM. The TGI in test [1] is 0.178 µM; in test [2], over 100 µM; in test [3], over 88.3 µM; in test [4], over 95.5 µM; in test [5], 12.8 µM; in test [6], over 45.9 µM. In addition, the TGI in test [7] was over 100 µM; in test [8], 88.8 µM; in test [9], over 100 µM; in [10] it was 92.2 µM.
